The values that follow are results of earlier work, collected in patent US20250195440A1, “PHARMACEUTICAL FORMULATION COMPRISING GLUCOKINASE ACTIVATOR AND USE THEREOF” (Hua Medicine USA Inc., priority 2023, published 2025).

Data set [1] has as its system esterase enzymes in gastrointestinal tract. The following applies: with esterase enzymes in gastrointestinal tract.
The subject of data set [2] is glucose-stimulated GLP-1 secretion. Conditions: patients with type II diabetes and obesity; Dorzagliatin alone.

As for `CC(C)C[C@@H](C(=O)Nc1ccn(C[C@@H](O)COC(=O)c2cccnc2)n1)N1CC(Oc2ccccc2Cl)=CC1=O` [compound of formula (I)], in data set [1], the “Conversion into active Dorzagliatin” value was “quickly and completely converted”.
For the compound `CC(C)C[C@@H](C(=O)Nc1ccn(C[C@@H](O)CO)n1)N1CC(Oc2ccccc2Cl)=CC1=O` [Dorzagliatin, (S)-2-[4-(2-chloro-phenoxy)-2-oxo-2,5-dihydro-pyrrol-1-yl]-4-methyl-pentanoic acid [1-((R)-2,3-dihydroxy-propyl)-1H-pyrazol-3-yl]-amide], the “Impaired glucose-stimulated GLP-1 secretion” value in data set [2] is “improved”.
